Assay results taken from PubChem BioAssay AID248 (DTP/NCI, 2004).
“And” between values parts separate entries of the source, which are not always exact repeats. Equal entries are not always repeated. Toxic doses and inconclusive results are not listed. Cut-off read from the data, not from the text of the source: active = T/C of 150% or more; inactive = T/C below 125%.

System: L1210 leukemia ip in BDF1 mice, survival T/C
Test: NCI In Vivo Anticancer Drug Screen. Data for tumor model L1210 Leukemia (intraperitoneal) in B6D2F1 (BDF1) mice
Settings: endpoint: mean survival time, higher = longer survival
Method in brief: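 Read-out is survival time, reported as the treated-group measurement over the vehicle-control measurement.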

[1] = dose: 100.0 mg/kg/injection, schedule: Q01DX001 (ip), vehicle: saline
[2] = dose: 100.0 mg/kg/injection, schedule: Q04DX003 (ip), vehicle: saline with Tween-80
[3] = dose: 200.0 mg/kg/injection, schedule: Q01DX001 (ip), vehicle: saline
[4] = dose: 400.0 mg/kg/injection, schedule: Q01DX001 (ip), vehicle: saline
[5] = dose: 100.0 mg/kg/injection, schedule: Q04DX002 (ip), vehicle: Klucel (hydroxypropylcellulose) (HPC)
[6] = dose: 200.0 mg/kg/injection, schedule: Q04DX002 (ip), vehicle: Klucel (hydroxypropylcellulose) (HPC)
[7] = dose: 400.0 mg/kg/injection, schedule: Q04DX002 (ip), vehicle: Klucel (hydroxypropylcellulose) (HPC)
[8] = dose: 50.0 mg/kg/injection, schedule: Q01DX009 (ip), vehicle: saline with Tween-80
[9] = dose: 100.0 mg/kg/injection, schedule: Q01DX009 (ip), vehicle: Klucel (hydroxypropylcellulose) (HPC)
[10] = dose: 200.0 mg/kg/injection, schedule: Q01DX009 (ip), vehicle: Klucel (hydroxypropylcellulose) (HPC)
[11] = dose: 400.0 mg/kg/injection, schedule: Q01DX009 (ip), vehicle: Klucel (hydroxypropylcellulose) (HPC)
[12] = dose: 50.0 mg/kg/injection, schedule: Q01DX001 (ip), vehicle: carboxymethylcellulose (CMC)
[13] = dose: 100.0 mg/kg/injection, schedule: Q01DX001 (ip), vehicle: carboxymethylcellulose (CMC)
[14] = dose: 200.0 mg/kg/injection, schedule: Q01DX001 (ip), vehicle: carboxymethylcellulose (CMC)
[15] = dose: 400.0 mg/kg/injection, schedule: Q01DX001 (ip), vehicle: carboxymethylcellulose (CMC)
[16] = dose: 100.0 mg/kg/injection, schedule: Q01DX009 (ip), vehicle: saline with Tween-80
[17] = dose: 200.0 mg/kg/injection, schedule: Q01DX009 (ip), vehicle: saline with Tween-80
[18] = dose: 400.0 mg/kg/injection, schedule: Q01DX009 (ip), vehicle: saline with Tween-80

Measured: T/C

O=S(=O)(CS(=O)(=O)Nc1ccccc1)Nc1ccccc1
inactive: dose: 25.0 mg/kg/injection, schedule: Q04DX003 (ip), vehicle: saline with Tween-80 113 % of control | dose: 50.0 mg/kg/injection, schedule: Q04DX003 (ip), vehicle: saline with Tween-80 116 % of control | [1] 94 % of control | [2] 111 % of control | [3] 94 % of control | [4] 94 % of control

Cc1ncc(/C=N/O)n1Cc1ccccc1
inactive: dose: 100.0 mg/kg/injection, schedule: Q01DX001 (ip), vehicle: other 97 % of control and 90 % of control | [5] 98 % of control | dose: 100.0 mg/kg/injection, schedule: Q04DX002 (ip), vehicle: other 94 % of control and 96 % of control | dose: 100.0 mg/kg/injection, schedule: Q04DX003 (ip), vehicle: other 97 % of control | dose: 200.0 mg/kg/injection, schedule: Q01DX001 (ip), vehicle: other 94 % of control and 97 % of control | [6] 94 % of control | dose: 200.0 mg/kg/injection, schedule: Q04DX002 (ip), vehicle: other 99 % of control and 105 % of control | dose: 200.0 mg/kg/injection, schedule: Q04DX003 (ip), vehicle: other 97 % of control and 100 % of control | dose: 400.0 mg/kg/injection, schedule: Q01DX001 (ip), vehicle: other 93 % of control and 91 % of control | [7] 105 % of control | dose: 400.0 mg/kg/injection, schedule: Q04DX002 (ip), vehicle: other 99 % of control and 92 % of control | dose: 400.0 mg/kg/injection, schedule: Q04DX003 (ip), vehicle: other 89 % of control and 90 % of control

C=Cc1c(C)c(O)cc2c1-c1ccc(O)c(C)c1CC2
inactive: dose: 6.25 mg/kg/injection, schedule: Q01DX009 (ip), vehicle: saline with Tween-80 102 % of control | dose: 12.5 mg/kg/injection, schedule: Q01DX009 (ip), vehicle: saline with Tween-80 102 % of control | dose: 25.0 mg/kg/injection, schedule: Q01DX009 (ip), vehicle: saline with Tween-80 98 % of control | [8] 91 % of control

CCOC(=O)NC(C(=O)OC)C(=O)OC
inactive: [9] 97 % of control | dose: 100.0 mg/kg/injection, schedule: Q04DX003 (ip), vehicle: saline 100 % of control | [10] 97 % of control | dose: 200.0 mg/kg/injection, schedule: Q04DX003 (ip), vehicle: saline 97 % of control | [11] 97 % of control | dose: 400.0 mg/kg/injection, schedule: Q04DX003 (ip), vehicle: saline 100 % of control

CC(/C=N/Nc1nnc(N/N=C/C(C)=C/c2ccccc2)c2ccccc12)=C\c1ccccc1
inactive: [12] 94 % of control | [13] 102 % of control | [14] 96 % of control | [15] 112 % of control

O=C(NC1C=CCCC1)c1ccccc1 (stereo not drawn)
inactive: [8] 102 % of control | [16] 96 % of control | [17] 96 % of control

CC(C)OC(=S)SCC(=O)c1ccc(-c2ccccc2)cc1
inactive: [5] 96 % of control | [6] 92 % of control | [7] 96 % of control

CCCCN(Cc1ccccc1)C(=S)Nc1ccccc1
inactive: [9] 106 % of control | [10] 108 % of control | [11] 108 % of control

CCSC1C(OC(C)=O)C(C(COC(C)=O)OC(C)=O)OC1n1cc(C)c(=O)[nH]c1=O (stereo not drawn)
inactive: dose: 100.0 mg/kg/injection, schedule: Q01DX005 (ip), vehicle: saline 98 % of control | dose: 200.0 mg/kg/injection, schedule: Q01DX005 (ip), vehicle: saline 100 % of control

Cc1ccc(C[n+]2cc([O-])on2)cc1C
inactive: dose: 100.0 mg/kg/injection, schedule: Q01DX Z (ip), vehicle: saline 105 % of control | dose: 200.0 mg/kg/injection, schedule: Q01DX Z (ip), vehicle: saline 93 % of control

O=S(=O)(Cc1nc2ccccc2[nH]1)Cc1nc2ccccc2[nH]1
inactive: [12] 97 % of control | [13] 92 % of control | [14] 100 % of control | [15] 92 % of control

Cc1ccc(C)c(CCCC(=O)O)c1
inactive: [16] 96 % of control | dose: 100.0 mg/kg/injection, schedule: Q04DX003 (ip), vehicle: Klucel (hydroxypropylcellulose) (HPC) 105 % of control | [17] 93 % of control | dose: 200.0 mg/kg/injection, schedule: Q04DX003 (ip), vehicle: Klucel (hydroxypropylcellulose) (HPC) 94 % of control | [18] 104 % of control | dose: 400.0 mg/kg/injection, schedule: Q04DX003 (ip), vehicle: Klucel (hydroxypropylcellulose) (HPC) 100 % of control

O=c1[nH]c(SCc2ccccc2[N+](=O)[O-])nc2nc[nH]c12
inactive: [9] 90 % of control | [5] 98 % of control | dose: 100.0 mg/kg/injection, schedule: Q04DX002 (ip), vehicle: saline 94 % of control | [10] 90 % of control | [6] 94 % of control | dose: 200.0 mg/kg/injection, schedule: Q04DX002 (ip), vehicle: saline 97 % of control | [11] 93 % of control | [7] 97 % of control | dose: 400.0 mg/kg/injection, schedule: Q04DX002 (ip), vehicle: saline 97 % of control

CC(C)=C1CCC(C)C/C1=N\N=C(N)N (stereo not drawn)
inactive: dose: 15.0 mg/kg/injection, schedule: Q01DX Z (ip), vehicle: carboxymethylcellulose (CMC) 100 % of control | dose: 30.0 mg/kg/injection, schedule: Q01DX Z (ip), vehicle: carboxymethylcellulose (CMC) 106 % of control | dose: 60.0 mg/kg/injection, schedule: Q01DX Z (ip), vehicle: carboxymethylcellulose (CMC) 89 % of control | dose: 120.0 mg/kg/injection, schedule: Q01DX Z (oral), vehicle: carboxymethylcellulose (CMC) 97 % of control | dose: 240.0 mg/kg/injection, schedule: Q01DX Z (oral), vehicle: carboxymethylcellulose (CMC) 97 % of control | dose: 480.0 mg/kg/injection, schedule: Q01DX Z (oral), vehicle: carboxymethylcellulose (CMC) 101 % of control

CCOC(=O)C(c1ccccc1)(c1ccccc1)c1ccccc1
inactive: dose: 6.25 mg/kg/injection, schedule: Q01DX009 (ip), vehicle: Klucel (hydroxypropylcellulose) (HPC) 90 % of control | dose: 12.5 mg/kg/injection, schedule: Q01DX009 (ip), vehicle: Klucel (hydroxypropylcellulose) (HPC) 92 % of control | dose: 25.0 mg/kg/injection, schedule: Q01DX009 (ip), vehicle: Klucel (hydroxypropylcellulose) (HPC) 95 % of control

Cc1ccc(C)c(SC2CCCCC2=O)c1 (stereo not drawn)
inactive: [1] 94 % of control | [3] 101 % of control | [4] 97 % of control

O=c1cc(C2CCCCC2)c2ccccc2[nH]1
inactive: dose: 100.0 mg/kg/injection, schedule: Q04DX003 (ip), vehicle: gum acacia 91 % of control | dose: 200.0 mg/kg/injection, schedule: Q04DX003 (ip), vehicle: gum acacia 97 % of control | dose: 400.0 mg/kg/injection, schedule: Q04DX003 (ip), vehicle: gum acacia 91 % of control

CCOC(=O)C(=CNc1ccccc1OC)C(=O)OCC
inactive: [8] 95 % of control | [16] 102 % of control | [2] 98 % of control | [17] 106 % of control | dose: 200.0 mg/kg/injection, schedule: Q04DX003 (ip), vehicle: saline with Tween-80 110 % of control | [18] 98 % of control | dose: 400.0 mg/kg/injection, schedule: Q04DX003 (ip), vehicle: saline with Tween-80 102 % of control

O=C1/C(=C/c2ccncc2)CCCc2ccccc21
inactive: dose: 6.25 mg/kg/injection, schedule: Q04DX003 (ip), vehicle: Klucel (hydroxypropylcellulose) (HPC) 98 % of control | dose: 12.5 mg/kg/injection, schedule: Q04DX003 (ip), vehicle: Klucel (hydroxypropylcellulose) (HPC) 97 % of control | dose: 25.0 mg/kg/injection, schedule: Q04DX003 (ip), vehicle: Klucel (hydroxypropylcellulose) (HPC) 97 % of control | dose: 200.0 mg/kg/injection, schedule: Q04DX003 (ip), vehicle: carboxymethylcellulose (CMC) 100 % of control

CNC(=O)OCC1=CC(=O)C=C(OC)C1=O
inactive: dose: 6.25 mg/kg/injection, schedule: Q01DX009 (ip), vehicle: gum acacia 90 % of control | dose: 12.5 mg/kg/injection, schedule: Q04DX003 (ip), vehicle: gum acacia 94 % of control | dose: 25.0 mg/kg/injection, schedule: Q04DX003 (ip), vehicle: gum acacia 101 % of control
